In patent US7812177B2, “Potassium channel opener having benzofuroindole skeleton” (Anygen Co., Ltd., priority 2005, dated 2010):
Entries after “also recorded” stand apart in the source; their conditions may differ. Blank lines part the entries; values can stand above or below the compound they belong to.

What was measured:
BKCa channel = BKCa channel (Homo sapiens, UniProt Q12791); conditions: similar assay system, same concentration (20 μM); cited from earlier work
[1] = Solubility in water (highest obtainable concentration); assay type: physicochemical; conditions: read-out: highest obtainable concentration because of solubility in water
Experimental: (§1) We then measured the concentration-dependence of compound 8 of the present invention. […] Although we were not able to obtain a concentration of compound 8 higher than 300 μM because of its solubility in water, we noticed that compound 8-induced current increases reached plateau levels at around 100 μM. […] We also measured the effects of compound 8 using inside-out patch configuration to determine whether this compound also affects channel activity from the intracellular side. The intracellular Ca^2+ concentration was fixed at 2 μM to activate rSlo channels, and different concentrations of compound 8 were added to the intracellular side of the membrane.

rSlo channel [2] = target: T1, rSlo channel (Rattus norvegicus, UniProt Q62976); assay: Concentration-dependence of channel opening, compound applied to the extracellular side of membrane patches; assay type: cell-based; conditions: extracellular application
T1 construct: expressed in transfected cells; host or cells: Xenopus laevis oocytes
Description: FIG. 6 illustrates concentration-dependence activity of compound 8 on BKCa channel. FIG. 6A illustrates concentration-dependence activity of rSlo channel. FIG. 6B illustrates concentration-dependence activity of rSlo channel combined with human β1. FIG. 6C illustrates concentration-dependence activity of rSlo channel combined with rat β4 subunit.
as §1

[3] = target: T2, cloned α subunit of rat BKCa channels, rSlo (Rattus norvegicus, UniProt Q62976); assay: Excised outside-out voltage clamp recording, fold increase of BKCa channel currents by extracellularly applied compounds; assay type: cell-based; conditions: extracellular treatment at 20 μM; outside-out patch, Xenopus laevis oocytes expressing rSlo
T2 construct: expressed in transfected cells; host or cells: Xenopus laevis oocytes
Experimental: FIG. 3 illustrates relative fold-increase of BKCa channel activity by extracellularly applied benzofuroindole analogues of present invention. Bar graphs represent fold increases in BKCa channel currents evoked by extracellular treatment of various compounds at 20 μM.
The biological activity of compounds 7˜23 to open BKCa channels and increase the BKCa channel currents was determined by using excised outside-out voltage clamp recording from Xenopus laevis oocytes expressing cloned α subunit of rat BKCa channels, rSlo.

rSlo channel [4] = target: T1, rSlo channel; assay: Potentiating effect on rSlo channels at various intracellular Ca2+ concentrations, outside-out patch; assay type: cell-based; conditions: 20 μM extracellular
Experimental: FIG. 4 illustrates potency of extracellularly applied compound 22 on rSlo channels in various intracellular Ca^2+ concentrations. Representative raw-traces were shown at different intracellular Ca^2+ concentrations. Intracellular Ca^2+ concentration was increased from Ca^2+-free (A), 0.5 μM (B), 1 μM (C) and 2 μM (D). The concentration of compound 22 was 20 μM on the extracellular side.
To investigate the potentiating effect of compound 22 on rSlo channels at various intracellular Ca^2+ concentrations, rSlo channels were activated in different concentrations of intracellular Ca^2+.
Excised outside-out patch configurations were obtained by making a gigaohm seal, rupturing the membrane pulling the pipette from oocytes. Both of the bath and pipette contained symmetrical 124 mM K^+ ions. Voltage pulses were applied to activate rSlo channel currents from −120 mV to 140 mV in 10 mV increments and intracellular Ca^2+ concentrations were used to activate rSlo channel from 0 (Ca^2+-free solution was to chelate with 5 mM EGTA) to 2 μM in intracellular side.
The representative raw-traces of rSlo channel activated by membrane voltages and intracellular Ca^2+ (FIG. 4). rSlo channel currents were recorded before and after the addition of 20 μM of compound 22.

rSlo channel [5] = target: T1, rSlo channel; assay: Concentration dependence on macroscopic rSlo channel activity expressed in Xenopus oocytes, Hill fit; assay type: cell-based
Experimental: FIG. 5 illustrates concentration-dependence of compound 22 on BKCa channel. Data points were fitted with Hill equation.
We performed experiments to determine the concentration dependence for the effect of compound 22 on macroscopic rSlo channel activity expressed in Xenopus oocytes.
Currents were recorded from excised outside-out patches before and after the addition of seven different concentrations of compound 22, from 0 to 300 μM. Channel activity of rSlo was elicited after patch excision with 2 μM intracellular Ca^2+ and increased rapidly with the addition of compound 22. Membrane potential was held at −120 mV and stepped to 50 mV for 50 ms. Relative current differences were determined from the currents of control activated with 2 μM of intracellular Ca^2+ and voltage at 50 mV, normalized with control currents and the obtained data points were fitter with a Hill equation (FIG. 5).

T1 sequence (Q62976 whole entry): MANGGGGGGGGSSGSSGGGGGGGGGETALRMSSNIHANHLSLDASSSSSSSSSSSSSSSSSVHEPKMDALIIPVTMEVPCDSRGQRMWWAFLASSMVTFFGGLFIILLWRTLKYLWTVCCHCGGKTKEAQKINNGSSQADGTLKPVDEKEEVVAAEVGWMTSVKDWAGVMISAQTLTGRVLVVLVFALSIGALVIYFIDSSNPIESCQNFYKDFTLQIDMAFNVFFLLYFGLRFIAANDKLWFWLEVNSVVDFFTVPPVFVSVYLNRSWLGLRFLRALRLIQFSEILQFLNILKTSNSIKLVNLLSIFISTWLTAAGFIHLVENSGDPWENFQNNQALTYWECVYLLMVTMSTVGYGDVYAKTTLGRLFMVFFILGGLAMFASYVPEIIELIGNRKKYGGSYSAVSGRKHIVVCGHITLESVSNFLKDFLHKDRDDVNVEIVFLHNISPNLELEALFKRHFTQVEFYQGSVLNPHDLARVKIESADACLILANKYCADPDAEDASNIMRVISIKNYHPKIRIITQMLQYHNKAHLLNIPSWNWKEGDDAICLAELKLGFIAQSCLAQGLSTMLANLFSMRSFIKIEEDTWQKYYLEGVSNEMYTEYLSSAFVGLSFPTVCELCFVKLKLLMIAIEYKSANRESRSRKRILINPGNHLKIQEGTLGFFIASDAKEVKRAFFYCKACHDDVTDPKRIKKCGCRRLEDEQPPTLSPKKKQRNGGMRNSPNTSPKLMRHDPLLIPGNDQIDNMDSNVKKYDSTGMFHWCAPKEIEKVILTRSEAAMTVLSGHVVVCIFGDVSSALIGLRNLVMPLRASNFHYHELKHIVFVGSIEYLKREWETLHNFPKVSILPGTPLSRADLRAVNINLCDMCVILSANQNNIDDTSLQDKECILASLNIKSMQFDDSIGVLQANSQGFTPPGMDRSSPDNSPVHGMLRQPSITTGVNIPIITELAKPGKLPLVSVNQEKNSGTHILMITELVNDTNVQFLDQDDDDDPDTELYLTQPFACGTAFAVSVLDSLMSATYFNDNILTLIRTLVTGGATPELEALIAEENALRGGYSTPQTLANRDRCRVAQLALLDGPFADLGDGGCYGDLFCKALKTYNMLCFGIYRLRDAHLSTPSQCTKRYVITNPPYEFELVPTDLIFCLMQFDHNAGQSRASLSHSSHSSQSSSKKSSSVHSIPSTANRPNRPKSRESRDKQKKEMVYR
T2 sequence (Q62976 whole entry): as above
Sequence of BKCa channel (Q12791 whole entry): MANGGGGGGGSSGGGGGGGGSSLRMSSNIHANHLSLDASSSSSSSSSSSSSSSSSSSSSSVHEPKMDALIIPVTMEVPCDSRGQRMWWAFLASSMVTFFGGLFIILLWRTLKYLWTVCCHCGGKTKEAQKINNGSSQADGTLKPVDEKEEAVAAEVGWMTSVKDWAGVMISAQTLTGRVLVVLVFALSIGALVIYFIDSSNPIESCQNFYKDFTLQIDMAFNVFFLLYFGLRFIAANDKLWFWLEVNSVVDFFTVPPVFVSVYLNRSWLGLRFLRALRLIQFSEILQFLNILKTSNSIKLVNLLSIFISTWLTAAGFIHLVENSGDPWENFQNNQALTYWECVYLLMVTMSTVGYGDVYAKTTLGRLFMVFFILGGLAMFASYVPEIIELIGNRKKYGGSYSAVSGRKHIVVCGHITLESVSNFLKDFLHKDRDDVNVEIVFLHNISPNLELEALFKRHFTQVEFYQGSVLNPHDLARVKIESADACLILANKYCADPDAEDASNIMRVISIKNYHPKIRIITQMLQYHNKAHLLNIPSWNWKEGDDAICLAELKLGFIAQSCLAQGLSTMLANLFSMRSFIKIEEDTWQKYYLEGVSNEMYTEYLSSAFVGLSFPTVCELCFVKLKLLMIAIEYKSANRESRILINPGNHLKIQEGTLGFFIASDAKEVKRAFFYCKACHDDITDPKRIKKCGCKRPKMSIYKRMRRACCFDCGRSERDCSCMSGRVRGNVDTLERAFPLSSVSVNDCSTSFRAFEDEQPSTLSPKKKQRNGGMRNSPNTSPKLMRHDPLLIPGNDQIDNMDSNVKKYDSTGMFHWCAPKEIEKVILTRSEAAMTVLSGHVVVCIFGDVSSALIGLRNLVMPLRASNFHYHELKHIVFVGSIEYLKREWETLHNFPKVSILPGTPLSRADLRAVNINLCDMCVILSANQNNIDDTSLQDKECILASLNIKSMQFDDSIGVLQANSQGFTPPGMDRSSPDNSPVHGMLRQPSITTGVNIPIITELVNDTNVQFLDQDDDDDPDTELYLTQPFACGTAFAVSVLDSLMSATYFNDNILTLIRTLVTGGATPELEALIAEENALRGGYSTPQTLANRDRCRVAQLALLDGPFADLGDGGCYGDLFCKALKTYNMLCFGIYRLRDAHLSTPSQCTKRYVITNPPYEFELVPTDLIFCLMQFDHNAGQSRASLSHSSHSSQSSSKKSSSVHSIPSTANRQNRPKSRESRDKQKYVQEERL

Compound: COc1ccc(Cl)cc1[C@]1(F)C(=O)Nc2cc(C(F)(F)F)ccc21 [BMS-204352]
- reported fold increase (BKCa channel): around 1.5

Compound: COc1ccc(Cl)cc1-c1c(CCO)c(=O)[nH]c2ccc(C(F)(F)F)cc12 [Compound 2]
- reported fold increase (BKCa channel): ~3.7

- solubility [1]: ≤ 300 µM
- EC50 (rSlo channel [2]): 8.9 ± 1.5 µM
Compound: O=C(O)c1cccc2c1[nH]c1c3ccc(C(F)(F)F)cc3oc21 [Compound 8, 7-Trifluoromethyl-10H-benzo[4,5]furo[3,2-b]indole-1-carboxylic acid]

- fold increase of BKCa channel currents [3]: activity near to the basal level
Compound: FC(F)(F)c1ccc2c(c1)oc1c3ccc(Cl)c(Cl)c3[nH]c21 [Compound 18, 1,2-Dichloro-7-trifluoromethyl-10H-benzo[4,5]furo[3,2-b]indole]

- fold increase of BKCa channel currents [3]: activity near to the basal level
Compound: FC(F)(F)c1ccc2c(c1)oc1c2[nH]c2cc(Cl)cc(Cl)c21 [Compound 19, 2,4-Dichloro-7-trifluoromethyl-10H-benzo[4,5]furo[3,2-b]indole]

- fold increase of BKCa channel currents [3]: more than 6 fold
- reversibility of enhanced rSlo current by washout (rSlo channel [4]; all tested intracellular Ca2+ concentrations): could be removed by washout
- Kd (rSlo channel [5]; 2 μM intracellular Ca2+, step to 50 mV, N=5, read-out: Kd, apparent dissociation constant (Hill fit)): 4.01 ± 0.75 µM
Compound: O=C(O)c1ccc(Cl)c2c1[nH]c1c3ccc(C(F)(F)F)cc3oc12 [Compound 22, 4-Chloro-7-trifluoromethyl-10H-benzo[4,5]furo[3,2-b]indole-1-carboxylic acid]
- effect on rSlo channel current (rSlo channel [4]; intracellular Ca2+ from Ca2+-free to 2 μM): markedly significant effects on rSlo channel current; also recorded: intracellular Ca^2+ concentrations do not affect the potentiating effect
- effect on rSlo current over concentration range (rSlo channel [5]; 50 nM to 300 μM): enhanced rSlo current in a concentration dependent manner

Compound: O=C(O)c1cc(Cl)cc2c1[nH]c1c3ccc(C(F)(F)F)cc3oc21 [Compound 23, 3-Chloro-7-trifluoromethyl-10H-benzo[4,5]furo[3,2-b]indole-1-carboxylic acid]
- fold increase of BKCa channel currents [3]: close but not better channel opening activity than compound 22
